From patent publication US11672786B2, “Methods of treating diseases associated with repeat instability” (The Hospital for Sick Children, priority 2016, dated 2023)

How the values were obtained:
[1] = tested on: HT1080-(CAG)850 cells; test: cellular distribution by confocal microscopy; format: cell-based, human; settings: 50-μM NBD-labeled NA, 48 hr
Method: Scale bar represents 20 μm. […] The cell viability was estimated with WST-1 assays. Values represent the means of three independent measures±SD. […] Error bars indicate the SD of triplicate experiments. […] The dashed line indicates the peak CAG size. Allele lengths are grouped in bins spanning 10 repeats. More than 230 alleles were sized per group.
HT1080-(CAG)850 cells were incubated with 50-μM NBD-labeled NA for 48 hr and Cell Light Plasma Membrane-RFP, BacMam 2.0 (Life Technologies, Carlsbad, Calif.), then fixed for 15 min at RT with 4% paraformaldehyde and washed 2 times for 10 min in phosphate buffered saline (PBS). Cells were mounted with Vectashield hard-set mounting media that contains DAPI (Vector Laboratories, Burlingame, Calif.). Fluorescence images were obtained using Olympus FV1000D confocal laser scanning microscope (Olympus, Tokyo, Japan).

[2] = tested on: CAG expansions; settings: by unknown processes; cited from earlier work

SMILES	cellular distribution [1]	effect on CAG expansions [2]
Cc1ccc2ccc(NC(=O)CCN(CCCNC(=O)CCCNC(=O)CCCCCNc3ccc([N+](=O)[O-])c4nonc34)CCC(=O)NCc3ccc4ccc(=O)[nH]c4n3)nc2n1 [NBD-labeled NA, N-(4-((3-((3-((7-methyl-1,8-naphthyridin-2-yl)amino)-3-oxopropyl)(3-oxo-3-(((7-oxo-7,8-dihydro-1,8-naphthyridin-2-yl)methyl)amino)propyl)amino)propyl)amino)-4-oxobutyl)-6-((7-nitrobenzo[c][1,2,5]oxadiazol-4-yl)amino)hexanamide]	distributed throughout the nuclei and cytoplasm	–
CC(C)C[C@@H](/C=C/[C@H](Cc1ccccc1)C(=O)N1CCC[C@H]1C(=O)N[C@H](C(=O)N[C@@H](CCCNC(=O)OCc1ccccc1)C(=O)NC1CC(C)(C)N([O])C(C)(C)C1)C(C)C)NC(=O)OC(C)(C)C [XJB-5-131]	–	mildly suppress CAG expansions rather than induce contractions
